Source: article PMC10999543, “Identification of kinase modulators as host-directed therapeutics against intracellular methicillin-resistant Staphylococcus aureus” (Frontiers in Cellular and Infection Microbiology, 2024)
Read-outs that look alike come from different tables or passages of the source.

Columns and labels:
[1] = test system: HeLa cells; assay: Compound screen by flow cytometry: HeLa cell count as surrogate readout of cell viability (z-scoreHeLa); format: cell-based, human; details: for cell count rep 1 / z-scoreHeLa rep 1: replicate 1; for cell count rep 2 / z-scoreHeLa rep 2: replicate 2; for cell count rep 3 / z-scoreHeLa rep 3: replicate 3; for z-scoreHeLa mean: mean of 3 replicates
Procedure, shortened: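 The viability surrogate was the count of fixed HeLa cells by flow cytometry, converted to z-scores against DMSO controls with values deviating two-fold excluded. Before counting, cells had been infected with MRSA for 1 h and cleared of extracellular bacteria with gentamicin. They were then exposed overnight to kinase inhibitors in triplicate.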

[2] = test system: intracellular MRSA; format: cell-based, Staphylococcus aureus; details: for %GFP+ rep 1 / z-scoreMRSA+ rep 1: replicate 1; for %GFP+ rep 2 / z-scoreMRSA+ rep 2: replicate 2; for %GFP+ rep 3 / z-scoreMRSA+ rep 3: replicate 3; for z-scoreMRSA+ mean: mean of 3 replicates
Procedure, shortened: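 HeLa cells were infected with GFP-expressing MRSA (mean MOI 6.8) for 1 h, treated with 30 µg/ml gentamicin for 15 min, then incubated overnight at 37°C with kinase inhibitors and 5 µg/ml gentamicin. Flow cytometry gave % GFP-positive cells, with cell count as viability. Hits were z-score ≤ -2 (infection) and ≥ -3 (count) versus DMSO.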

[3] = PKIS compound screen raw data, HeLa cell count
[4] = PKIS compound screen, HeLa cell count
[5] = PKIS compound screen, Yes/No call
[6] = PKIS compound screen, Yes/No call on z-scoreHeLa
[7] = PKIS compounds raw data, HeLa cell count
[8] = PKIS compound screen raw data, MRSA-infected HeLa cells
[9] = PKIS compound screen, MRSA-infected HeLa cells
[10] = PKIS compound screen, Yes/No call (effect without cell death)
[11] = PKIS compound screen, Yes/No call on z-scoreMRSA+
[12] = PKIS compounds raw data, MRSA-infected HeLa cells
[13] = compound screen, HeLa cell count
[14] = compound screen, MRSA-infected HeLa cells

For `COc1cc(Nc2nccc(N3CCC(NC(=O)Nc4ccc5c(c4)OCO5)C3)n2)cc(OC)c1OC` (stereo not shown) [GSK1379766A], the “cell count rep 1” value [1, 3] was 25836, the “cell count rep 2” value [1, 3] was 29727 and the “cell count rep 3” value [1, 3] was 37841. For the same compound, the z-scoreHeLa mean [1, 4] was -0.17, the “z-scoreHeLa rep 1” value [1, 4] was 0.87 and the “z-scoreHeLa rep 2” value [1, 4] was -0.94. The “z-scoreHeLa rep 3” value [1, 4] was -0.43, the cell death [1, 5] was “No” and the cell death [1, 6] was “No”. The z-scoreHeLa mean ([1]; PKIS compound screen) was 0.15, the “z-scoreHeLa rep 1” value ([1]; PKIS compound screen) was 0.05 and the “z-scoreHeLa rep 2” value ([1]; PKIS compound screen) was -0.13. The “z-scoreHeLa rep 3” value ([1]; PKIS compound screen) was 0.53, the “cell count rep 1” value [1, 7] was 6133 and the “cell count rep 2” value [1, 7] was 5809. For the same compound, the “cell count rep 3” value [1, 7] was 6429, the “%GFP+ rep 1” value [2, 8] was 17.4% and the “%GFP+ rep 2” value [2, 8] was 18.6%. For the same compound, the “%GFP+ rep 3” value [2, 8] was 19.8%, the “z-scoreMRSA+ mean” value [2, 9] was -0.04 and the “z-scoreMRSA+ rep 1” value [2, 9] was -0.15. The “z-scoreMRSA+ rep 2” value [2, 9] was 0.0226, the “z-scoreMRSA+ rep 3” value [2, 9] was 0.00377 and the effect [2, 5] was “No”. For the same compound, the hit [2, 10] was “No”, the effect [2, 11] was “No” and the “z-scoreMRSA+ mean” value ([2]; PKIS compound screen) was 0.27. For the same compound, the “z-scoreMRSA+ rep 1” value ([2]; PKIS compound screen) was 0.18, the “z-scoreMRSA+ rep 2” value ([2]; PKIS compound screen) was 0.32 and the “z-scoreMRSA+ rep 3” value ([2]; PKIS compound screen) was 0.30. The “%GFP+ rep 1” value [2, 12] was 28.0%, the “%GFP+ rep 2” value [2, 12] was 27.7% and the “%GFP+ rep 3” value [2, 12] was 28.9%.

For `COc1ccc(CNC(=O)NC2CCN(c3ccnc(Nc4ccc(F)cc4)n3)CC2)cc1` [GSK1379788A], the “cell count rep 1” value [1, 3] was 6376, the “cell count rep 2” value [1, 3] was 5935 and the “cell count rep 3” value [1, 3] was 7721. For the same compound, the cell death ([1]; Yes/No call from z-scoreHeLa) was “No”, the z-scoreHeLa mean [1, 13] was 1.43 and the “z-scoreHeLa rep 1” value [1, 13] was 1.46. For the same compound, the “z-scoreHeLa rep 2” value [1, 13] was 1.26, the “z-scoreHeLa rep 3” value [1, 13] was 1.57 and the “%GFP+ rep 1” value [2, 8] was 25.3%. The “%GFP+ rep 2” value [2, 8] was 23.5%, the “%GFP+ rep 3” value [2, 8] was 21.9% and the effect ([2]; Yes/No call from z-scoreMRSA+) was “No”. The hit ([2]; Yes/No: effect without cell death) was “No”, the “z-scoreMRSA+ mean” value [2, 14] was 0.044 and the “z-scoreMRSA+ rep 1” value [2, 14] was 0.00598. For the same compound, the “z-scoreMRSA+ rep 2” value [2, 14] was 0.22 and the “z-scoreMRSA+ rep 3” value [2, 14] was -0.09.

`O=C(Nc1ccccc1F)NC1CCN(c2ccnc(Nc3ccc(F)cc3)n2)CC1` [GSK1379800A] was tested, and the cell death [1, 5] was “No”, the z-scoreHeLa mean ([1]; PKIS compound screen) was 0.79 and the “z-scoreHeLa rep 1” value ([1]; PKIS compound screen) was 0.80. For the same compound, the “z-scoreHeLa rep 2” value ([1]; PKIS compound screen) was 0.32, the “z-scoreHeLa rep 3” value ([1]; PKIS compound screen) was 1.24 and the “cell count rep 1” value [1, 7] was 7378. For the same compound, the “cell count rep 2” value [1, 7] was 6492, the “cell count rep 3” value [1, 7] was 7551 and the effect [2, 5] was “No”. For the same compound, the hit [2, 10] was “No”, the “z-scoreMRSA+ mean” value ([2]; PKIS compound screen) was 0.29 and the “z-scoreMRSA+ rep 1” value ([2]; PKIS compound screen) was -0.13. The “z-scoreMRSA+ rep 2” value ([2]; PKIS compound screen) was 0.53, the “z-scoreMRSA+ rep 3” value ([2]; PKIS compound screen) was 0.47 and the “%GFP+ rep 1” value [2, 12] was 26.4%. The “%GFP+ rep 2” value [2, 12] was 28.8% and the “%GFP+ rep 3” value [2, 12] was 29.8%.

In the case of `COc1ccc(Nc2nccc(N3CCC(NC(=O)C(C)c4ccc(Cl)cc4)CC3)n2)cc1` (stereo not shown) [GSK1379812A], the “cell count rep 1” value [1, 3] is reported as 31442, the “cell count rep 2” value [1, 3] is reported as 27526 and the “cell count rep 3” value [1, 3] is reported as 20779. The z-scoreHeLa mean [1, 4] was 0.32, the “z-scoreHeLa rep 1” value [1, 4] was 0.21 and the “z-scoreHeLa rep 2” value [1, 4] was 0.39. The “z-scoreHeLa rep 3” value [1, 4] was 0.36, the cell death [1, 5] was “No” and the cell death [1, 6] was “No”. For the same compound, the z-scoreHeLa mean ([1]; PKIS compound screen) was 0.45, the “z-scoreHeLa rep 1” value ([1]; PKIS compound screen) was 0.54 and the “z-scoreHeLa rep 2” value ([1]; PKIS compound screen) was 0.66. For the same compound, the “z-scoreHeLa rep 3” value ([1]; PKIS compound screen) was 0.15, the “cell count rep 1” value [1, 7] was 6940 and the “cell count rep 2” value [1, 7] was 7004. The “cell count rep 3” value [1, 7] was 5839, the “%GFP+ rep 1” value [2, 8] was 20.9% and the “%GFP+ rep 2” value [2, 8] was 22.5%. For the same compound, the “%GFP+ rep 3” value [2, 8] was 23.9%, the “z-scoreMRSA+ mean” value [2, 9] was 0.71 and the “z-scoreMRSA+ rep 1” value [2, 9] was 0.57. For the same compound, the “z-scoreMRSA+ rep 2” value [2, 9] was 0.84, the “z-scoreMRSA+ rep 3” value [2, 9] was 0.73 and the effect [2, 5] was “No”. For the same compound, the hit [2, 10] was “No”, the effect [2, 11] was “No” and the “z-scoreMRSA+ mean” value ([2]; PKIS compound screen) was 0.50. The “z-scoreMRSA+ rep 1” value ([2]; PKIS compound screen) was 0.81, the “z-scoreMRSA+ rep 2” value ([2]; PKIS compound screen) was 0.11 and the “z-scoreMRSA+ rep 3” value ([2]; PKIS compound screen) was 0.60. The “%GFP+ rep 1” value [2, 12] was 31.2%, the “%GFP+ rep 2” value [2, 12] was 26.6% and the “%GFP+ rep 3” value [2, 12] was 30.5%.

For `COC(=O)c1cccc(NC(=O)NC2CCN(c3ccnc(NCc4ccc(F)cc4)n3)CC2)c1` [GSK1379860A], the “cell count rep 1” value [1, 3] was 26314, the “cell count rep 2” value [1, 3] was 10320 and the “cell count rep 3” value [1, 3] was 10213. For the same compound, the z-scoreHeLa mean [1, 4] was -1.64, the “z-scoreHeLa rep 1” value [1, 4] was -0.66 and the “z-scoreHeLa rep 2” value [1, 4] was -2.56. The “z-scoreHeLa rep 3” value [1, 4] was -1.70, the cell death [1, 5] was “No” and the cell death [1, 6] was “No”. The z-scoreHeLa mean ([1]; PKIS compound screen) was -1.76, the “z-scoreHeLa rep 1” value ([1]; PKIS compound screen) was -1.69 and the “z-scoreHeLa rep 2” value ([1]; PKIS compound screen) was -2.71. The “z-scoreHeLa rep 3” value ([1]; PKIS compound screen) was -0.89, the “cell count rep 1” value [1, 7] was 3229 and the “cell count rep 2” value [1, 7] was 1923. For the same compound, the “cell count rep 3” value [1, 7] was 4200, the “%GFP+ rep 1” value [2, 8] was 17.4% and the “%GFP+ rep 2” value [2, 8] was 15.1%. The “%GFP+ rep 3” value [2, 8] was 20.5%, the “z-scoreMRSA+ mean” value [2, 9] was -0.58 and the “z-scoreMRSA+ rep 1” value [2, 9] was -0.37. For the same compound, the “z-scoreMRSA+ rep 2” value [2, 9] was -1.18, the “z-scoreMRSA+ rep 3” value [2, 9] was -0.20 and the effect [2, 5] was “No”. For the same compound, the hit [2, 10] was “No”, the effect [2, 11] was “No” and the “z-scoreMRSA+ mean” value ([2]; PKIS compound screen) was 0.11. For the same compound, the “z-scoreMRSA+ rep 1” value ([2]; PKIS compound screen) was 0.51, the “z-scoreMRSA+ rep 2” value ([2]; PKIS compound screen) was -0.14 and the “z-scoreMRSA+ rep 3” value ([2]; PKIS compound screen) was -0.03. The “%GFP+ rep 1” value [2, 12] was 29.7%, the “%GFP+ rep 2” value [2, 12] was 25.3% and the “%GFP+ rep 3” value [2, 12] was 27.1%.
